Assay type in all cases: cell-based, human
For data set [1], the system named is endometriotic epithelial 12Z cells. As to the kind of experiment: MTT reduction assay, cell viability. How it is done: (§1) The effect of resveratrol and its natural analogs on the viability of endometriotic epithelial 12Z cells and endometrial stromal T HESC cells was assessed using the MTT assay. Table 1 presents the IC10 and IC50 values (the inhibitor concentration required for 10% and 50% reduction in […]) obtained after 48-h incubation with the tested compounds. […] The cytotoxicity of resveratrol and pterostilbene to 12Z cells was not markedly different. T HESC and 12Z cells varied in susceptibility to the treatment with stilbenes tested, as evidenced by the cytotoxic doses shown in Table 1. […] Similarly, resveratrol evoked much weaker cytotoxic effects in T HESC cells than in 12Z cells. Polydatin at concentrations up to 400 µM was not cytotoxic to the T HESC cells, while at a dose of 86.76 µM, it induced the first cytotoxic symptoms in 12Z cells. […] The increased susceptibility of endometriotic 12Z cells than endometrial T HESC cells to resveratrol and its natural analogs was consistent in both assays (Fig. 1).
(§2) The immortalized human endometriotic epithelial cells (12Z), derived from peritoneal endometriosis lesions, were obtained from Applied Biological Materials Inc. (Richmond, Canada). The 12Z cells were cultured in Dulbecco's Modified Eagle Medium/Nutrient Mixture F-12 (DMEM/F12), containing 10% fetal bovine serum (FBS) and 50 mg/L gentamycin. American Type Culture Collection (ATCC, Manassas, VA, USA) was the source for human endometrial stromal cells immortalized by telomerase (T HESC, CRL-4003). The cells were maintained routinely in phenol red-free DMEM/F12 supplemented with 10% charcoal/dextran treated FBS, 1% ITS + 1, and 50 mg/L gentamycin, at 37 °C and 5% CO2. Both cell lines were negative for mycoplasma contamination; mycoplasma-free cells were confirmed repeatedly during the study.
(§3) Cells were seeded at a density of 0.15 × 10^5 cells/cm^2 in 6-well plates. The 24-h cell cultures were treated with resveratrol and its derivatives for 48 h under standard culture conditions. Camptothecin was applied as a reference apoptosis inducer; its final concentrations were set to 5 µM and 50 µM.
(§4) Cell viability and metabolic activity were determined using the MTT colorimetric assay, according to the protocol described in previous studies. Based on the obtained data, the dose–response curves were plotted, and inhibitory concentrations (IC) were calculated. In addition, cell proliferation was measured using the alamarBlue™ Cell Viability Reagent (Invitrogen, Carlsbad, CA, USA) according to the manufacturer's protocol. Fluorescence was measured using a Tecan M200 Infinite microplate reader (Tecan Group Ltd., Männedorf, Switzerland).

In data set [2] the test system is endometrial stromal T HESC cells. As to the kind of experiment: MTT reduction assay, cell viability. As to conditions: T HESC cells, 48-h incubation, MTT. Here is the method: as §1, §2, §3, §4
In general terms: Tetrazolium dyes change colour on reduction, which living cells bring about.

Data set [3] has as its system caspases-3/7. Put plainly: APO-One Homogenous Caspase-3/7 Assay in 12Z cells. Here is the method:
Resveratrol evoked a dose-dependent caspase-3/7 activation in 12Z cells (F = 2467.29, p < 0.0001). […] It was consistent with the results of CASP3 gene expression activation. […] There was a 2.8-fold activation of caspase 3/7 enzymes following treatment with piceatannol at a 200 μM dose, which complies with the CASP3 mRNA expression level.
To quantitate the proteolytic activity of caspase 3 and 7, we performed an assay based on the proteolytic cleavage of the C-terminal side of the aspartate residue in the DEVD peptide substrate by caspase 3/7 and into the fluorescent rhodamine 110. Caspase 3/7 activity was determined using the APO-One Homogenous Caspase-3/7 Assay (Promega Corporation, Wisconsin, USA) following the manufacturer's instructions. The obtained data were normalized to cellular protein content. The total protein was quantified by BCA assay (Pierce® BCA Protein Assay Kit, Thermo Scientific Inc., USA) according to the manufacturer's protocol.

Each structure is given as a SMILES string.

By IC10 is commonly meant the concentration at which the effect reaches the 10% level. A high value points to a need for much substance. What is called IC50 is the concentration that inhibits the measured activity by half. A high value points to a need for much substance.

On to `COc1cc(C=Cc2ccc(O)cc2)cc(OC)c1` [Pterostilbene, 3,5-dimethoxy-4′-hydroxystilbene], for which the IC10 is 29.34 ± 4.46 µM in data set [1] (12Z cells, 48-h incubation) and 113.79 ± 5.11 ^## µM in data set [2]. Further, the “cytotoxicity in 12Z versus T HESC cells, comparing IC50 values” in data set [1] (48 h) is given as “almost twofold lower”. Further, the IC50 in data set [1] (Homo sapiens, 12Z cells, 48-h incubation) was 73.9 ± 6 µM; in data set [2] (Homo sapiens), 145 ± 7.71 µM. Also, the caspase-3/7 activity increase result was “modestly activated” in data set [3] (100 µM) and “inhibited their activity” in data set [3] (200 µM).

(Values after publication PMC10349804, “Natural resveratrol analogs differentially target endometriotic cells into apoptosis pathways” (Scientific Reports, 2023).)
